Assay results published in patent US20140348966A1, “GARCINIA BUCHANANII BAKER COMPOUNDS, COMPOSITIONS AND RELATED METHODS” (priority 2011, published 2014).
Several values for one entry are separate records, joined by “and”; a condition that tells them apart may be missing. Identical values can stand only once. Counter-ions that a name gives are not always drawn.

Tests used:
guinea pig distal colon = assay: fecal pellet propulsion motility assay in isolated distal colon (GIMM)
Method: Gastrointestinal Motility Assays: Segments (˜10 cm long) of distal colon were pinned on either end in a Sylgard-lined 50 mL organ bath, continuously perfused with oxygenated Krebs solution (rate: 10 mL min^−1) and maintained at temperatures between 36 and 37° C. Tissues were initially allowed to equilibrate for 30 mins in re-circulating Krebs solution. Colonic motility was studied using the Gastronintestinal Motility Monitoring system (GIMM; Med-Associates Inc., Saint Albans, Vt., USA), which included a digital video camera (Catamount Research and Development Inc, St Albans, Vt., USA) to film fecal pellet propulsion. Trials were separated by 5-min recovery periods between successive pellet runs. The GIMM system software calculated velocities by tracking pellets as they traversed colon segments. After initial equilibration, five pellet propulsion trials in vehicle solution were obtained to determine the basal velocity for each tissue preparation. To reduce variations between runs and experiments, the values obtained were used to generate a normalized basal velocity by dividing the values of the 4th-5th runs by the value of the 1st-2nd runs. Garcinia buchananii stem bark extract and test compounds dissolved in 100 mL of Krebs solution were superfused either into the organ bath or into the lumen of the colon using polyethylene tubing [PE 205; outside diameter 9.5 mm (BD-Worldwide, Sparks, Md., USA)]. The effects of extract and test compounds were evaluated by obtaining velocities of four trials taken at 5-min intervals (5-20 min) Normalized velocity data for these treatments were obtained by dividing the test velocities acquired by the average velocity of the five pellet propulsion runs performed in vehicle solution (runs 1-5, above). Normalized data became ratios without units, and were presented as a percent velocity of basal activity for each tissue. Velocities of pellet propulsion were also studied during washout of tissue with Krebs solution (after extract or test compound application) for 20 min
A segment (˜10-12 cm long) of distal colon was pinned on either end in a Sylgard-lined 50 mL organ bath being continuously perfused with oxygenated Krebs solution (rate: 10 mL min^−1) and maintained at temperatures between 36-37° C. Nail-polish-coated guinea-pig pellets similar in shape and size to the “native” colonic fecal pellets were used to determine propulsive velocities using the Gastrointestinal Motility Monitoring system (Med-Associates Inc., Saint Albans, Vt., USA) for filming pellet propulsion as described by Hoffman and others (2010). Velocity was calculated based on the time required for pellets to traverse 5-6 cm of the central colon segment ending 1 cm from the aboral end. Data collection started after 30 minutes of equilibration. A five-minute interval was used to allow equilibration of motor activity between successive pellet runs. Baseline velocities were measured for 20 minutes.
In intraluminal studies, the aqueous extract was prepared by suspending 2 g of G. buchananii bark powder in 100 mL Krebs, whereas 1 g G. buchananii bark powder prepared in the same manner was used for bath (serosal) applications. The extract-Krebs mixture was continuously stirred for 30 minutes and filtered using analytical filter paper (Schleicher and Schuell Blue Ribbon filter paper 589/3; 0.2 μm retention). Garcinia buchananii extract and test compounds were delivered to isolated colons in Krebs solution, and evaluated for effects on pellet propulsion during 20-25 minute time intervals. Intraluminal drug deliveries (350 μL min^−1 Krebs solution) were performed using polyethylene tubing (PE 205; outside diameter 9.5 mm) inserted ˜1.5 cm into the oral end of the segments. In bath deliveries, G. buchananii extract and test compounds were superfused directly into the organ bath. Studies involving PTLC fractions were performed using the organ bath delivery method only.

[1] = system: Wistar rats with high-lactose diet-induced diarrhea; assay: high-lactose diet (HLD) induced diarrhea in rats; type: in vivo
Method: A high-lactose (35%) diet induced diarrhea in Wistar rats, which were then treated with either G. buchananii bark extract (0.1, 0.5, 1.0 and 5.0 g bark powder) or its anti-motility fractions isolated using preparative thin layer chromatography; termed PTLC1 (15 mg) and PTLC5 (3.8 mg) or loperamide (8.4 mg), each dissolved in 1 liter of tap water. Numerous parameters were measured in each condition including consistency, fluid and mucus content of feces, body weight, water and food consumption, urine production and bloating.
The study was conducted in accordance with the regulations of the University of Idaho Institutional Animal Care and Use Committee (IACUC). Sixty two, 10 week old Wistar rats were obtained from Harlan Animal Research Laboratory (Hayward Calif., USA). Rats were individually caged (23-24° C.; 12:12 h light-dark cycle) and quarantined for one week. Rats were fed a standard chow diet ad libitum (Animal Specialties, Hubbard, Oreg., USA) and had free access to water for four days prior to the inducement of diarrhea. A high-lactose diet (HLD) containing 35% lactose in place of starch (3.004 Kcal; Purina Mills; Richmond, Ind., USA) was fed to 52 rats. Diarrhea was induced within 24-48 hours after consuming the diet. Rats were monitored for changes in consistency of pellets and stool mass, fecal fluid and urine production (mass; g and volume; ml). Rats were considered diarrheic if they produced watery stools, soft, yellowish stools compared to normal, pliable, soft, well-formed pellets as previously described by other researchers.
Four days after introducing rats to a HLD, diarrheic rats were treated using varying doses of G. buchananii extract, its anti-motility fractions isolated using preparative thin layer chromatoghraphy (PTLC1 & PTLC5) and loperamide for standard comparison. Rats were maintained on a HLD during the entire treatment period.
Garcinia buchananii bark powder was prepared from stem barks collected from trees in their natural habitat in Karagwe, Tanzania, as described previously by Balemba, OB and colleagues, 2010. A sample can be found at the University of Idaho Stillinger herbarium (voucher #159918). 0.1 g, 0.5 g, 1.0 g and 5.0 g of G. buchananii bark powder were each suspended in 1 L of tap water, stirred for 30 minutes and filtered. The filtrate was then immediately used to treat rats against lactose-induced diarrhea.
Twenty nine rats on a HLD were randomly assigned and treated with varying doses of G. buchananii extract (0.1 g, 0.5 g, 1 g, and 5 g extract; n=6-10 rats per group). Eight rats were treated with PTLC1 or PTLC5 (each n=4) at a dose of 15 mg and 3.8 mg in 100 mL tap water, respectively. For control treatments, seven rats were treated with loperamide (8.4 mg/L tap water), eight rats were left untreated (HLD control) and ten rats received control standard chow diets (SD). Rats were treated for a total of four days, receiving freshly made drugs every two days.
We studied the impact of a HLD and all the treatments on the consistency, form and appearance of feces. Body weight, food and water intake were measured every two days for the entire period. Diarrheic rats treated with G. buchananii (0.1 g/l, 1.0 g/l) and loperamide were used to study fecal fluid content, stool mass and urine production compared with untreated rats on a HLD and SD control diets (n=3-5). To achieve this, pellets/stools and urine were allowed to drop on non-leaking, polyester plastic mats spread in metal trays placed beneath wired cages housing rats. Pellets/stools and urine were collected every three hours, for 24 hours, for a 12-day period. Disposable polyethylene transfer pipettes (5.5 mL) were used to collect urine. Pellets/stools were collected by using custom-made pieces of Inkjet transparencies. The samples were stored in disposable, polypropylene containers (100 mL) tightly capped to avoid loss of moisture due to vaporization. […]

[2] = bath (serosal) application, 20 min, extract 1 g/100 mL Krebs, PTLC1 15 mg, PTLC5 3.8 mg/100 mL, RS-56812 50 nmol/L, cisapride 100 nmol/L, CJ-033466 300 nmol/L, granisetron 1 μmol/L, ondansetron 0.5 μmol/L, GR-113808 5 μmol/L
[3] = intraluminal delivery, 5 min, extract 2 g bark powder/100 mL Krebs, 5-HT 0.5 μmol/L, RS-56812 50 nmol/L, cisapride 100 nmol/L, CJ-033466 300 nmol/L, GR-113808 5 μM
[4] = intraluminal delivery, 15 min, extract 2 g bark powder/100 mL Krebs, drug concentrations as at 5 min
[5] = intraluminal delivery, 20 min, extract 2 g bark powder/100 mL Krebs, drug concentrations as at 5 min
[6] = HLD rats, PTLC1 15 mg, PTLC5 3.8 mg in 100 mL tap water, loperamide 8.4 mg/L, after 24 hrs to the 4th day
[7] = HLD rats, loperamide 8.4 mg/L, PTLC1 15 mg/100 mL, PTLC5 3.8 mg/100 mL

Compound	pellet propulsion, percent of normalized baseline pellet velocity (guinea pig distal colon; [2])	pellet propulsion, percent of normalized baseline pellet velocity (guinea pig distal colon; [3]) [%]	pellet propulsion, percent of normalized baseline pellet velocity (guinea pig distal colon; [4]) [%]	pellet propulsion, percent of normalized baseline pellet velocity (guinea pig distal colon; [5]) [%]	also measured
Cn1cc(C(=O)C(=O)NC2CN3CCC2CC3)c2ccccc21 (centres unmarked) [RS-56812]	103.3±4.7%	119.7 ± 5.2	119.6 ± 5.4	126.7 ± 9.2	
Cc1cn2c(N)c(Cl)cc(C(=O)NCC3CCN(CC(C)C)CC3)c2n1 [CJ-033466]	102.8±6.5%	132.7 ± 7.1	112.1 ± 6.7	116.6 ± 5.6	
Cn1cc(C(=O)OCC2CCN(CCNS(C)(=O)=O)CC2)c2ccccc21 [GR-113808]	did not alter pellet propulsion	109.3 ± 6.1	93.2 ± 3.6	91.7 ± 3.1	inhibition of pellet propulsion (guinea pig distal colon; intraluminal, after 20 minutes, extract 2 g/100 mL Krebs, granisetron 2 μM, GR-113808 5 μM): 10%
CN(C)C(=O)C(CCN1CCC(O)(c2ccc(Cl)cc2)CC1)(c1ccccc1)c1ccccc1 [loperamide]					intestinal bloating / cecum distension ([1]; HLD rats, all doses): reduced cecum distension; cecum maximum diameter ([1]; HLD rats, loperamide 8.4 mg/L): 2.0+/−0.2 cm; fecal fluid content ([1]; HLD rats, loperamide 8.4 mg/L): 43.8±6.5%; Form of stool: Hardened normal pellets [1, 6]: ++++++; Form of stool: Loose stool with structural form of pellet [1, 6]: −; Form of stool: Loose stools + mucous (non-structural stool) [1, 6]: −; Form of stool: Soft formed pellets [1, 6]: −; Form of stool: Watery diarrhea + mucous (incontinence or profuse) [1, 6]: −; body weight change [1, 7]: -1.33 ± 0.64 g; food consumption [1, 7]: 28.50 ± 3.58 g; water (fluid) consumption [1, 7]: 43.96 ± 7.66 mL; reversal of weight loss versus untreated HLD rats ([1]; loperamide 8.4 mg/L, not significant): 1.78 g
COc1cc(N)c(Cl)cc1C(=O)NC1CCN(CCCOc2ccc(F)cc2)CC1OC (centres unmarked) [cisapride, Cisapride]	85.0±5.5% and 85.0±5.9%	115.6 ± 4.9	109.6 ± 9.3	122.0 ± 8.2	inhibition of pellet propulsion (guinea pig distal colon; serosal (bath) application, 20 min, extract 1 g, PTLC1 15 mg, PTLC5 3.8 mg per 100 mL Krebs, cisapride 100 nmol/L, RS-56812 50 nmol/L): 15%
NCCc1c[nH]c2ccc(O)cc12 [Compound 5-HT, Serotonin hydrochloride]		118.3 ± 16.2	117.6 ± 13.5	114.3 ± 11.9	
Cc1nccn1CC1CCc2c(c3ccccc3n2C)C1=O (centres unmarked) [ondansetron, ondansetron hydrochloride]	111.3±9.8%				
CN1C2CCCC1CC(NC(=O)c1nn(C)c3ccccc13)C2.Cl (centres unmarked) [granisetron, granisetron hydrochloride]	101.4±7.0%	99.3 ± 4.2	92.4 ± 1.4	86.5 ± 3.6	
